Data: patent publication US20100098640A1, “Multidentate Pyrone-Derived Chelators for Medicinal Imaging and Chelation” (priority 2005, published 2010)

Columns and labels:
Format in all cases: physicochemical
[1] = Competition batch titration with DTPA (pGd); conditions: pH 7.4, 24 h equilibration, three titrations
From the text: The affinity of these ligands for protons and metal ions in solution is described in terms of formation constants. The protonation of a metal complex can be subsequently calculated from the appropriate cumulative constants. The stability of metal complexes can be discussed in terms of the pM value (in this case pGd) which is expressed as
Although a pM value can be calculated under various conditions (e.g. different pH's or relative concentrations), in the context of a biological scenario the following parameters are commonly used for comparison: [M]=1 μM, [L]=10 μM, and pH=7.4.
The stability of the heteropodate ligands with Gd^3+, Ca^2+, and Zn^2+ can be measured by spectrophotometric titration. The strong UV absorptions (π→π*) of the pyrone rings of the ligands can be monitored in order to follow the complexation reaction (FIG. 2). The titration can be performed in a batch mode, collecting between 20-40 spectra, monitored between 200-500 nm for each titration of a ligand in the presence of an equal molar amount of Gd^3+, Ca^2+ or Zn^2+. […]

Aqueous solubility = test: Aqueous solubility
[2] = Protonation constants of free ligands by potentiometric titration; conditions: 1.0 M aqueous NaCl, ligand ~0.5 mM
Description: Thermodynamic evaluation of the new ligands can include potentiometric determination of the ligand protonation constants and spectrophotometric evaluation of the Gd^3+, Ca^2+, and Zn^2+ stability constants. In order to determine the stability of these ligands with Gd^3+, first the protonation constants for each ligand is determined. The protonation constants can be measured by potentiometric titration and the assignment of these protonations can be made using ^1H NMR titrations. ^1H NMR titration experiments use changes in the chemical shift of the non-exchangeable protons on the ligand to assign the sites of protonation; data is plotted as chemical shift vs. pD.
The experimental protocols and equipment used have been previously described (Johnson, A. R., et al. Inorg. Chem. 2000, 39, 2652). To determine the protonation constants of the free ligands, approximately 15 mg of ligand was dissolved in 50 mL of a 1.0 M aqueous solution of NaCl in a titration vessel (ligand concentration ˜0.5 mM). Protonation constants of TRENMAM and TREN-Me-MAM were examined by potentiometric (pH vs total proton concentration) titrations by using Hyperquad (Gans, P. et al. Talanta 1996, 43, 1739) for data analysis. Each protonation constant determination is the result from at least three experiments (where each experiment consists of two titrations, the first one titrated with acid, followed by a reverse titration with base). The equilibration time between additions of titrant was 90 seconds.

Row | Compound | pGd [1] | water solubility compared to the TREN-Me-MAM ligand (Aqueous solubility) | log K1 (protonation constant) [2] | log K2 (protonation constant) [2] | log K3 (protonation constant) [2] | log K4 (protonation constant) [2]
1 | O=C(NCCN(CCNC(=O)c1occc(=O)c1O)CCNC(=O)c1occc(=O)c1O)c1occc(=O)c1O [TRENMAM] | 19.27±0.08 | improved water solubility | 7.33(1) | 5.76(1) | 4.97(2) | 3.84(2)
2 | tris(aminoethyl)amine)methylmaltolamide [TREN-Me-MAM] | 19.03±0.04 |  | 7.91(1) | 6.30(2) | 5.48(2) | 4.46(2)
